Data set [1] in a line: Dissolution rate in stirring water. Particulars: for dissolution rate: inside temperature 34° C., n=2. It counts as physicochemical. As to the method: Leu and Glc-Leu were each added to stirring water (inside temperature 34° C.) in a hot-water bath at 35° C., and the dissolution rate was measured. The amount of the sample added and the measurement results are as shown below (n=2). As compared to Leu, Glc-Leu was dissolved 46 times faster in equal weight and 17 times faster in equimolar amount.

Data set [2] in a line: Heat stability of aqueous Glc-Leu solution (free Leu by HPLC). The format is physicochemical. Particulars: aqueous solution 100 mg/dl; for Leu liberated: 90° C. The protocol:
On the other hand, free Leu was not confirmed at 60° C. even after 72 hr, and sufficient heat stability as an amino acid precursor was shown.

In the next data set the test system is α/β-glucosidase. The data set can be described thus: Glucosidase treatment, amino acid production amount by HPLC. To be noted: phosphate buffer pH 5.5, 37° C., 30 min later. The format is in vitro ADME. The protocol: Glc-Phe, Glc-Leu, Glc-Lys, Glc-Glu and Glc-DOPA were each dissolved in phosphate buffer (pH 5.5) at the ratio shown in Table 2, α/β-glucosidase in the amount shown in Table 2 was added, and the mixture was stirred in a hot-water bath at 37° C. The mixture was diluted 2-fold with 1% aqueous phosphoric acid solution, and analyzed by HPLC. […] As for Glc-Leu, about 80% of leucine was liberated 1 hr later; as for Glc-Lys, about 20% of lysine was liberated 1 hr later; as for Glc-Glu, about 40% of glutamic acid was liberated 1 hr later; and as for Glc-DOPA, about 70% of 3,4-dihydroxyphenylalanine was liberated 1 hr later.

The mark [3] stands for this setting: equivalent weight, 300 mg/25 ml water.

Experimental findings from patent publication US10787476B2, “Glycoamino acid and use thereof” (AJINOMOTO CO., INC., priority 2013, dated 2020) are described below.

In the case of `CC(C)C[C@H](NC(=O)OC1O[C@H](CO)[C@@H](O)[C@H](O)[C@H]1O)C(=O)O` (stereo partly drawn) [Glc-Leu, N-(α/β-D-glucopyranosyloxycarbonyl)-L-leucine], the dissolution rate in data set [1] (setting [3]) was 26 s. Further, the “dissolved faster as compared to Leu” value is given as 46 times in data set [1] (in equal weight) and 17 times in data set [1] (in equimolar amount). Moreover, the “free Leu” value in data set [2] (60° C., after 72 hr) is recorded as “not confirmed”. In addition, the Leu liberated result in data set [2] (72 hr) was “liberated almost completely”; in data set [2] (about 6 hr), “about 50%”.
On to `O=C(N[C@@H](Cc1ccccc1)C(=O)O)OC1O[C@H](CO)[C@@H](O)[C@H](O)[C@H]1O` (stereo partly drawn) [Glc-Phe, N-(α/β-D-glucopyranosyloxycarbonyl)-L-phenylalanine], for which the remaining glycoamino acid result in the data set on α/β-glucosidase is “almost disappeared”.
With `CC(C)C[C@H](N)C(=O)O` [Leu, L-leucine, reference compound], the dissolution rate entry is “(450 sec)” in data set [1] (equimolar amount to glycoamino acid, 111 mg (0.85 mmol)/25 ml water) and “(1203 sec)” in data set [1] (setting [3]).
